Experimental data reported in DBAASP.
≈ marks a conversion by molar mass, not a printed value.

Legend:
Assay in all cases: ≥ marks a high value that may be exact or a test limit, other limits are often not marked, values filed in µg/mL are converted to µM
[1] = test system: Escherichia coli NCTC 10418
[2] = test system: Pseudomonas aeruginosa ATCC 27853
[3] = test system: Enterococcus faecalis NCTC 12697
[4] = test system: Staphylococcus aureus ATCC 12493
[5] = test system: Candida albicans NCTC 1467
[6] = test system: Staphylococcus aureus NCTC 10788
[7] = test system: Staphylococcus aureus
[8] = test system: Serratia marcescens
[9] = test system: Pseudomonas aeruginosa
[10] = test system: Stenotrophomonas maltophilia
[11] = test system: Streptococcus pneumoniae
[12] = test system: Escherichia coli
[13] = test system: Enterococcus faecalis
[14] = test system: Enterococcus faecium
[15] = test system: Acinetobacter baumannii
[16] = test system: Klebsiella pneumoniae
[17] = test system: Staphylococcus aureus MR
[18] = test system: Pseudomonas aeruginosa H188
[19] = test system: Escherichia coli DH5alpha
[20] = test system: Escherichia coli ATCC 25922
[21] = test system: Salmonella enterica subsp. enterica serovar Typhimurium ATCC 14028
[22] = test system: Escherichia coli UB1005
[23] = test system: Salmonella enterica subsp. enterica serovar Pullorum C79-13
[24] = test system: Escherichia coli K88
[25] = test system: Escherichia coli K99
[26] = test system: Pseudomonas aeruginosa CICC 21625
[27] = test system: Pseudomonas aeruginosa PAO1
[28] = test system: Salmonella enterica subsp. enterica serovar Typhimurium C77-31
[29] = test system: Pseudomonas aeruginosa CICC 21630
[30] = test system: Staphylococcus epidermidis
[31] = test system: Candida albicans
[32] = test system: Salmonella enterica serovar Typhimurium
[33] = test system: Pseudomonas aeruginosa H103
[34] = test system: Staphylococcus aureus ATCC 25923

CC[C@H](C)[C@H](NC(=O)[C@H](CCCCN)NC(=O)[C@H](CCCCN)NC(=O)[C@H](C)NC(=O)[C@@H](NC(=O)[C@H](C)NC(=O)[C@H](CC(C)C)NC(=O)[C@H](CC(C)C)NC(=O)[C@H](C)NC(=O)[C@H](CCCCN)NC(=O)[C@H](CC(C)C)NC(=O)[C@H](CC(N)=O)NC(=O)[C@H](CC(C)C)NC(=O)[C@H](CCCN=C(N)N)NC(=O)[C@H](CCCN=C(N)N)NC(=O)[C@H](CCCN=C(N)N)NC(=O)[C@H](CCC(N)=O)NC(=O)[C@H](CCCN=C(N)N)NC(=O)[C@H](CCCN=C(N)N)NC(=O)[C@H](CCCCN)NC(=O)[C@H](CCCCN)NC(=O)[C@@H](N)CCCN=C(N)N)C(C)C)C(=O)N[C@@H](CC(C)C)C(N)=O [RKKRRQRRRLNLKALLAVAKKIL] gave an MIC [1] of 2 µM (≈ 5.66 µg/mL), an MIC [2] of 4 µM (≈ 11.3 µg/mL) and an MIC [3] of 8 µM (≈ 22.6 µg/mL). For the same molecule, the MIC [4] was 4 µM (≈ 11.3 µg/mL), the MIC [5] was 2 µM (≈ 5.66 µg/mL) and the MIC [6] was 4 µM (≈ 11.3 µg/mL).
Molecule CC[C@H](C)[C@H](NC(=O)[C@H](CC(C)C)NC(=O)CNC(=O)[C@H](CO)NC(=O)[C@@H](NC(=O)[C@H](CC(C)C)NC(=O)[C@@H](N)CC(N)=O)C(C)C)C(=O)N[C@@H](CCC(=O)O)C(=O)N[C@@H](C)C(=O)N[C@@H](CCCN=C(N)N)C(=O)N[C@@H](CCCCN)C(=O)N[C@@H](Cc1ccc(O)cc1)C(=O)N[C@@H](CC(C)C)C(=O)N[C@@H](CCC(=O)O)C(=O)N[C@@H](CCC(N)=O)C(=O)N[C@@H](CC(C)C)C(=O)N[C@@H](Cc1cnc[nH]1)C(=O)N[C@@H](CCCN=C(N)N)C(=O)N[C@@H](CCCCN)C(=O)N[C@@H](CC(C)C)C(=O)N[C@@H](CCCCN)C(=O)N[C@@H](CC(N)=O)C(=O)N[C@@H](CS)C(=O)N[C@@H](CCCCN)C(=O)N[C@H](C(=O)O)C(C)C [NLVSGLIEARKYLEQLHRKLKNCKV] has an MIC [7] of 3.84 µM (≈ 11.3 µg/mL), an MIC [8] of 7.65 µM (≈ 22.6 µg/mL) and an MIC [9] of 15.3 µM (≈ 45.3 µg/mL). The MIC [10] was 10.8 µM (≈ 32 µg/mL), the MIC [11] was 3.84 µM (≈ 11.3 µg/mL) and the MIC [12] was 2.71 µM (≈ 8.02 µg/mL). The MIC [13] was 3.84 µM (≈ 11.3 µg/mL), the MIC [14] was 10.8 µM (≈ 32 µg/mL) and the MIC [15] was 15.3 µM (≈ 45.3 µg/mL). For the same molecule, the MIC [16] was 3.84 µM (≈ 11.3 µg/mL) and the MIC [17] was 3.84 µM (≈ 11.3 µg/mL).
In the case of CC[C@H](C)[C@H](NC(=O)[C@H](C)NC(=O)[C@H](CCCCN)NC(=O)[C@H](CC(C)C)NC(=O)[C@H](C)NC(=O)[C@@H](NC(=O)[C@H](Cc1cnc[nH]1)NC(=O)[C@H](CC(C)C)NC(=O)[C@H](CCCCN)NC(=O)[C@@H](NC(=O)[C@H](CCCCN)NC(=O)[C@H](CCCCN)NC(=O)[C@H](C)NC(=O)[C@H](CO)NC(=O)[C@H](CCCCN)NC(=O)[C@H](Cc1ccccc1)NC(=O)[C@@H](NC(=O)[C@H](CCCCN)NC(=O)[C@H](CC(C)C)NC(=O)[C@H](Cc1ccccc1)NC(=O)[C@H](CO)NC(=O)[C@H](CCCCN)NC(=O)[C@H](Cc1c[nH]c2ccccc12)NC(=O)[C@H](CCCCN)NC(C)=O)[C@@H](C)O)[C@@H](C)O)[C@@H](C)O)C(=O)N[C@@H](CO)C(=O)N[C@@H](CO)C(N)=O [KWKSFLKTFKSAKKTKLHTALKAISS], the MIC [18] was 5.37 µM (≈ 16.2 µg/mL), the MIC [2] was 10.7 µM (≈ 32.4 µg/mL) and the MIC [19] was 5.37 µM (≈ 16.2 µg/mL). The MIC [20] was 10.7 µM (≈ 32.4 µg/mL) and the MIC [12] was 2.69 µM (≈ 8.11 µg/mL).
Molecule CC[C@H](C)[C@H](NC(=O)[C@H](C)NC(=O)[C@H](CCCCN)NC(=O)[C@H](CC(C)C)NC(=O)[C@H](C)NC(=O)[C@@H](NC(=O)[C@H](Cc1cnc[nH]1)NC(=O)[C@H](CC(C)C)NC(=O)[C@H](CO)NC(=O)[C@@H](NC(=O)[C@H](CCCCN)NC(=O)[C@H](CCCCN)NC(=O)[C@H](C)NC(=O)[C@H](CO)NC(=O)[C@H](CCCCN)NC(=O)[C@H](Cc1ccccc1)NC(=O)[C@@H](NC(=O)[C@H](CCCCN)NC(=O)[C@H](CC(C)C)NC(=O)[C@H](Cc1ccccc1)NC(=O)[C@H](CO)NC(=O)[C@H](CCCCN)NC(=O)[C@H](Cc1c[nH]c2ccccc12)NC(=O)[C@H](CCCCN)NC(C)=O)[C@@H](C)O)[C@@H](C)O)[C@@H](C)O)C(=O)N[C@@H](CO)C(=O)N[C@@H](CO)C(N)=O [KWKSFLKTFKSAKKTSLHTALKAISS] has an MIC [18] of 1.36 µM (≈ 4.06 µg/mL), an MIC [2] of 10.9 µM (≈ 32.4 µg/mL) and an MIC [19] of 2.72 µM (≈ 8.11 µg/mL). For the same molecule, the MIC [20] was 2.72 µM (≈ 8.11 µg/mL) and the MIC [12] was 5.45 µM (≈ 16.2 µg/mL).
With CC(C)[C@H](N)C(=O)N[C@@H](CCCN=C(N)N)C(=O)N1CCC[C@H]1C(=O)N[C@H](C(=O)N[C@H](C(=O)N[C@@H](CCCN=C(N)N)C(=O)N1CCC[C@H]1C(=O)N[C@H](C(=O)N[C@H](C(=O)N[C@@H](CCCN=C(N)N)C(=O)N1CCC[C@H]1C(=O)N[C@H](C(=O)N[C@H](C(=O)N[C@@H](CCCN=C(N)N)C(=O)N1CCC[C@H]1C(=O)N[C@H](C(=O)N[C@H](C(=O)N[C@@H](CCCN=C(N)N)C(=O)N1CCC[C@H]1C(=O)N[C@H](C(=O)N[C@H](C(=O)N[C@@H](CCCN=C(N)N)C(=O)N1CCC[C@H]1C(=O)N[C@H](C(N)=O)C(C)C)C(C)C)C(C)C)C(C)C)C(C)C)C(C)C)C(C)C)C(C)C)C(C)C)C(C)C)C(C)C [VRPVVRPVVRPVVRPVVRPVVRPV] the MIC [21] was 16 µM (≈ 43.6 µg/mL), the MIC [22] was at least 32 µM and the MIC [9] was over 64 µM. The MIC [23] was 8 µM (≈ 21.8 µg/mL), the MIC [24] was 8 µM (≈ 21.8 µg/mL) and the MIC [2] was over 64 µM. It also gave an MIC [25] of 16 µM (≈ 43.6 µg/mL), an MIC [20] of 64 µM (≈ 174 µg/mL) and an MIC [12] of 64 µM (≈ 174 µg/mL). It also gave an MIC [26] of at least 64 µM, an MIC [27] of over 64 µM and an MIC [28] of at least 32 µM. The MIC [15] was 4 µM (≈ 10.9 µg/mL), the MIC [29] was at least 64 µM and the MIC [16] was over 64 µM.
In the case of CC[C@H](C)[C@H](NC(=O)[C@H](Cc1c[nH]c2ccccc12)NC(=O)[C@H](CC(C)C)NC(=O)[C@H](CCCN=C(N)N)NC(=O)[C@@H](N)C(C)C)C(=O)N[C@@H](CCCN=C(N)N)C(=O)N[C@H](C(=O)N[C@@H](C)C(=O)N[C@H](C(=O)N[C@H](C(=O)N[C@@H](CCCN=C(N)N)C(=O)N[C@@H](C)C(N)=O)[C@@H](C)CC)C(C)C)C(C)C [VRLWIRVAVIRA], the MIC [22] was 4.13 µM (≈ 6 µg/mL), the MIC [30] was 2.07 µM (≈ 3 µg/mL) and the MIC [31] was 34.4 µM (≈ 50 µg/mL). It also gave an MIC [32] of at least 34.4 µM, an MIC [33] of at least 34.4 µM and an MIC [34] of 34.4 µM (≈ 50 µg/mL).
CC[C@H](C)[C@H](NC(=O)CN)C(=O)N[C@@H](CCSC)C(=O)N[C@@H](CC(=O)O)C(=O)N[C@H](C(=O)N[C@H](C(=O)N[C@@H](CCCCN)C(=O)N[C@@H](CC(N)=O)C(=O)N[C@@H](C)C(=O)N[C@@H](C)C(=O)N[C@@H](CCCCN)C(=O)N[C@@H](CC(N)=O)C(=O)N[C@@H](CC(C)C)C(=O)N[C@@H](C)C(=O)NCC(=O)N[C@@H](CCC(N)=O)C(=O)N[C@@H](CC(C)C)C(=O)N[C@@H](CC(C)C)C(=O)N[C@@H](CC(=O)O)C(=O)N[C@@H](CCCCN)C(=O)N[C@@H](CC(C)C)C(=O)N[C@@H](CCCCN)C(=O)O)C(C)C)[C@@H](C)O [GIMDTVKNAAKNLAGQLLDKLK] gave an MIC [1] of at least 128 µM, an MIC [2] of over 512 µM and an MIC [3] of at least 512 µM. The MIC [4] was at least 512 µM, the MIC [5] was at least 512 µM and the MIC [6] was at least 256 µM.
